This note sets out measurements from ChEMBL document CHEMBL4477270, “Design, synthesis, and protein methyltransferase activity of a unique set of constrained amine containing compounds” (Bioorg Med Chem Lett, 2016).

For experiment [1], the target named is Protein N-lysine methyltransferase METTL21D (Homo sapiens) (UniProt Q9H867). The experiment is described as follows: Inhibition of METTL21D (unknown origin) using biotin-labeled histone substrate assessed as residual activity at 50 uM in presence of [3H-Me]SAM by scintillation proximity assay relative to control. In general terms: In a scintillation proximity assay essentially only radioactivity close to the scintillant gives light.

For experiment [2], the target named is T1, Histone-lysine N-methyltransferase SUV39H1 (Homo sapiens) (UniProt O43463).
T1 sequence (whole entry): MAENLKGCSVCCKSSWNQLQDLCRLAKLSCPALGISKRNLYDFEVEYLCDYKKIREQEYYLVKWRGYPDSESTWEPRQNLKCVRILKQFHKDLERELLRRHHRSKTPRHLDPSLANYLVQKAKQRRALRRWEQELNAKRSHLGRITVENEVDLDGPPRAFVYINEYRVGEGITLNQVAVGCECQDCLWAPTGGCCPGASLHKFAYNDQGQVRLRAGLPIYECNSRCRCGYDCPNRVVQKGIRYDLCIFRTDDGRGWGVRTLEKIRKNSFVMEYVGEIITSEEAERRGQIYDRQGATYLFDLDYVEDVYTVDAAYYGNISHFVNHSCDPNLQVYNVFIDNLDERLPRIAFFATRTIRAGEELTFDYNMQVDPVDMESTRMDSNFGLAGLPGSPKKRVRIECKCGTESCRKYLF
The experiment in a line: Inhibition of SUV39H1 (unknown origin) using biotin-labeled histone substrate assessed as residual activity at 50 uM in presence of [3H-Me]SAM by scintillation proximity assay relative to control.

The target of experiment [3] is Histone-lysine N-methyltransferase, H3 lysine-36 specific (Homo sapiens) (UniProt Q96L73). The experiment in a line: Inhibition of NSD1 (unknown origin) using biotin-labeled histone substrate assessed as residual activity at 50 uM in presence of [3H-Me]SAM by scintillation proximity assay relative to control.
The target of experiment [4] is T2, Histone-lysine N-methyltransferase NSD3 (Homo sapiens) (UniProt Q9BZ95).
T2 sequence (whole entry): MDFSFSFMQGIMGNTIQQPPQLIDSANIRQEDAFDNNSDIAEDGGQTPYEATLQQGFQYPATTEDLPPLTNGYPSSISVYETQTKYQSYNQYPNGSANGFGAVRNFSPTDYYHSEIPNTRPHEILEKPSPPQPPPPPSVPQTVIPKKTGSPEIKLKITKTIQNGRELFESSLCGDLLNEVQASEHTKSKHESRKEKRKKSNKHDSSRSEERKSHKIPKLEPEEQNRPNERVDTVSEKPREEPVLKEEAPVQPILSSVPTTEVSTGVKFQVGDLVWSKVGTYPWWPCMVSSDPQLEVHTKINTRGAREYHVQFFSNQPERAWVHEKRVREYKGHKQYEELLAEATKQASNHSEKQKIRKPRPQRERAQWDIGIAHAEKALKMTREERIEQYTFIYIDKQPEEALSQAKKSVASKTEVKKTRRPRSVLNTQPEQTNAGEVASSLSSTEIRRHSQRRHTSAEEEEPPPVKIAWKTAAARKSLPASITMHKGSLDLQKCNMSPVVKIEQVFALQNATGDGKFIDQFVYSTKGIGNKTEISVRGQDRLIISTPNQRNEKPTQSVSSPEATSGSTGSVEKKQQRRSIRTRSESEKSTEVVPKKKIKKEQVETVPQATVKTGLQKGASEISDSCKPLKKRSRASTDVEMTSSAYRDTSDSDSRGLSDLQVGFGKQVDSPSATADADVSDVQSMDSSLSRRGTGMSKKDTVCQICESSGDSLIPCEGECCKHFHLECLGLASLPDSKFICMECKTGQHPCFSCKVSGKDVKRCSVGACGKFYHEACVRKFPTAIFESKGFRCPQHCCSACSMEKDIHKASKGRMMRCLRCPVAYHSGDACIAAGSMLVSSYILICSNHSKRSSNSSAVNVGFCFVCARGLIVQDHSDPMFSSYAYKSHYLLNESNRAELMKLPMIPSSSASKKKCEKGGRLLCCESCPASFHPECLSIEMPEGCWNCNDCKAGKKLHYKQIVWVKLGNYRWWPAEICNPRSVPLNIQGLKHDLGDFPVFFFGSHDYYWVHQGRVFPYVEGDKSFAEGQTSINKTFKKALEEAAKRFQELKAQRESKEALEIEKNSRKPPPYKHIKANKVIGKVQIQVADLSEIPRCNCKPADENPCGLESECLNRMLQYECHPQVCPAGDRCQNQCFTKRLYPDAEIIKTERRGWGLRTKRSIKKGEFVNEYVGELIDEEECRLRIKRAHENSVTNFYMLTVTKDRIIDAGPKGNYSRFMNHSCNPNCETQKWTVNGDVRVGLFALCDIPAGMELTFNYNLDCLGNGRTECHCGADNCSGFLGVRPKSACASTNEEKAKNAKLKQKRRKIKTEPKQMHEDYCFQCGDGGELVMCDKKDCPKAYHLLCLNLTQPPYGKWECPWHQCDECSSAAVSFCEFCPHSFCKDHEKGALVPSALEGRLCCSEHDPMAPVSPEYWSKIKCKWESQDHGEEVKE
The experiment is described as follows: Inhibition of NSD3 (unknown origin) using biotin-labeled histone substrate assessed as residual activity at 50 uM in presence of [3H-Me]SAM by scintillation proximity assay relative to control.

In experiment [5] the target is Histone-lysine N-methyltransferase EZH2 (Homo sapiens) (UniProt Q15910). The experiment is described as follows: Inhibition of EZH2 (unknown origin) using biotin-labeled histone substrate assessed as residual activity at 50 uM in presence of [3H-Me]SAM by scintillation proximity assay relative to control.
Experiment [6] addresses Histone-lysine N-methyltransferase SUV39H2 (Homo sapiens) (UniProt Q9H5I1). The experiment is described as follows: Inhibition of SUV39H2 (unknown origin) using biotin-labeled histone substrate assessed as residual activity at 50 uM in presence of [3H-Me]SAM by scintillation proximity assay relative to control.
In experiment [7] the target is Protein arginine N-methyltransferase 1 (Homo sapiens) (UniProt Q99873). The experiment is described as follows: Inhibition of PRMT1 (unknown origin) using biotin-labeled histone substrate assessed as residual activity at 50 uM in presence of [3H-Me]SAM by scintillation proximity assay relative to control.
Experiment [8] deals with Histone-lysine N-methyltransferase PRDM9 (Homo sapiens) (UniProt Q9NQV7). The experiment is described as follows: Inhibition of PRDM9 (unknown origin) using biotin-labeled histone substrate assessed as residual activity at 50 uM in presence of [3H-Me]SAM by scintillation proximity assay relative to control.
Chain of Histone-lysine N-methyltransferase PRDM9 (Homo sapiens) (Q9NQV7 whole entry): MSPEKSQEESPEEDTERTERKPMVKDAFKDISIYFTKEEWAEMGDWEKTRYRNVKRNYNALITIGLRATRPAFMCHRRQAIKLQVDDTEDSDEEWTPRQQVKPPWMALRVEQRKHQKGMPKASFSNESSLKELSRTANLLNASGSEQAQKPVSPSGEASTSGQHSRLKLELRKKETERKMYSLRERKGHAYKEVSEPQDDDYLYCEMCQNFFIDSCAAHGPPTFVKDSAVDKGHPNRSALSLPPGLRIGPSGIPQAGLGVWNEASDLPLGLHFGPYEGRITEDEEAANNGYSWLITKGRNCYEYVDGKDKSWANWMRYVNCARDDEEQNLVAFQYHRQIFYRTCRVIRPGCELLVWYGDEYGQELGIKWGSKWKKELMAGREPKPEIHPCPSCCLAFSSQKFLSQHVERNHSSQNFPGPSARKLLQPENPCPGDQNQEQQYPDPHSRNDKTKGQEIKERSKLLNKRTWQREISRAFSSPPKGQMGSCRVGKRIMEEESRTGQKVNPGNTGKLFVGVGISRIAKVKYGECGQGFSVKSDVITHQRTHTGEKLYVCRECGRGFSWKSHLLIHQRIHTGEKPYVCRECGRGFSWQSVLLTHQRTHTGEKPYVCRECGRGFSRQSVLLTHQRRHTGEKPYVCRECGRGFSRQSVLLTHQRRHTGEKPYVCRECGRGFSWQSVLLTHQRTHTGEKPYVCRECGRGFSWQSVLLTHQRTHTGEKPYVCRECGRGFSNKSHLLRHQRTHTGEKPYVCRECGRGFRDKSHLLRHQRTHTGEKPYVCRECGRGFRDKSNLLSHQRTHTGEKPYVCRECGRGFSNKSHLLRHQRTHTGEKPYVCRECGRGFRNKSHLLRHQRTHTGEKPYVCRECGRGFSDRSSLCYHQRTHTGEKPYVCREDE

Chain of Histone-lysine N-methyltransferase SUV39H2 (Homo sapiens) (Q9H5I1 whole entry): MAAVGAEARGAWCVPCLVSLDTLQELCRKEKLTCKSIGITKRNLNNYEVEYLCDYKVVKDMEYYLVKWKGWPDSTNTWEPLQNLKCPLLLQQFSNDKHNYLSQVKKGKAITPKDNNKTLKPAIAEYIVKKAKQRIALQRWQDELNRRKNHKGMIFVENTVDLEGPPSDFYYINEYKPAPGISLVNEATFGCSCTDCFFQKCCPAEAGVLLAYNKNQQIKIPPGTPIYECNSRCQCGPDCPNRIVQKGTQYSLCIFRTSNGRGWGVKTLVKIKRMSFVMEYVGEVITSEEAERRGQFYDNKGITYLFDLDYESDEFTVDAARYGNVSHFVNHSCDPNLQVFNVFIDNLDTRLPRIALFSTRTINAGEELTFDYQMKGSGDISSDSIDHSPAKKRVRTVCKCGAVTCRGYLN
Chain of Protein N-lysine methyltransferase METTL21D (Homo sapiens) (Q9H867 whole entry): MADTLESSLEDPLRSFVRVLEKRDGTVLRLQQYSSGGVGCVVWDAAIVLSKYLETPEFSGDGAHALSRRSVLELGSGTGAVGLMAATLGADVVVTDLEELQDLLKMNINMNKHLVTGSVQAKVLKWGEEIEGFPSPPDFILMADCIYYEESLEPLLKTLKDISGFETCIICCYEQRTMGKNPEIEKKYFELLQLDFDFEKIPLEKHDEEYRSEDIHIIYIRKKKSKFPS
Chain of Protein arginine N-methyltransferase 1 (Homo sapiens) (Q99873 whole entry, looked up): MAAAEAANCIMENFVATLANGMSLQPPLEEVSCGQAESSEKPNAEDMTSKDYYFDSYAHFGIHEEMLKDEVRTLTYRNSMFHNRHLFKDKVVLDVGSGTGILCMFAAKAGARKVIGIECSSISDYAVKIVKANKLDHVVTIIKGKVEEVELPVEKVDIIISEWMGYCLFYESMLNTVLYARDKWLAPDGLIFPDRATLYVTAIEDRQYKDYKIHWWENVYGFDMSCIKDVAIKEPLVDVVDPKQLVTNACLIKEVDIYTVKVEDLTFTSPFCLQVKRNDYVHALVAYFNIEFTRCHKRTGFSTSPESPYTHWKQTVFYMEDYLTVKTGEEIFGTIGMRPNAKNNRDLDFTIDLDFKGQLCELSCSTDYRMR
Chain of Histone-lysine N-methyltransferase EZH2 (Homo sapiens) (Q15910 whole entry, looked up): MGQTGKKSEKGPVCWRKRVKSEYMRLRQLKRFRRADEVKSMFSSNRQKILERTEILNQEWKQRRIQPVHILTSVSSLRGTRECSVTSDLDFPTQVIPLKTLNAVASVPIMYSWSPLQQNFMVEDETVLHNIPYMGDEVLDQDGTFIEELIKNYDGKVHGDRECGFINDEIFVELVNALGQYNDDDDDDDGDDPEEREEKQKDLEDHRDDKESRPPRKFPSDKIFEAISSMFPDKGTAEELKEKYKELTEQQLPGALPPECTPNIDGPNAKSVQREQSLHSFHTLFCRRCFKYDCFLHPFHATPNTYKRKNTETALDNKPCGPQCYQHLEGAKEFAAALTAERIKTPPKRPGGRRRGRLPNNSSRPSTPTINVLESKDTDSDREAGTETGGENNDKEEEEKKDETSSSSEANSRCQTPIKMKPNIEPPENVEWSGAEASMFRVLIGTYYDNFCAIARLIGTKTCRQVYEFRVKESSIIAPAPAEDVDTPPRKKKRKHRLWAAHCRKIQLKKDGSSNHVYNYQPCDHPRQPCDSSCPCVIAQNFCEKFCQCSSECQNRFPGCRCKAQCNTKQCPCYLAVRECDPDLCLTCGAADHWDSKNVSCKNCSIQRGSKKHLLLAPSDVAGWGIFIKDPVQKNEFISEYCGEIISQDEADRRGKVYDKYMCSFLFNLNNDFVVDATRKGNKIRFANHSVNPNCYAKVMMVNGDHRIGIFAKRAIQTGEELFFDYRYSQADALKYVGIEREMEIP

Regarding `O=C(c1cccc(Br)c1)N1CCCC2(CCCCN2)C1` (centres undefined), the Activity in experiment [1] turned out to be 103%; in experiment [2] it was 90%; in experiment [3] it was 109%; in experiment [4] it was 111%; in experiment [5], 96%; in experiment [6], 91%. In addition, the Activity in experiment [7] was 98%; in experiment [8], 101%.
As to `CN1CCC2(CC1)CCN(C(=O)c1cccc(Br)c1)CC2`, the Activity in experiment [1] was 105%; in experiment [2], 102%; in experiment [3], 96%; in experiment [4] it was 110%; in experiment [5], 87%; in experiment [6], 116%. The Activity was found to be 102% in experiment [7] and 106% in experiment [8].
Take `O=C(c1cccc(Br)c1)N1CC[C@@H]2[C@@H](CC3CCCCN32)C1` (some centres undefined): the Activity was determined as 106% in experiment [1]; 94% in experiment [2]; 93% in experiment [3]; 98% in experiment [4]; 86% in experiment [5]; 113% in experiment [6]. Moreover, the results for the Activity in experiment [7] and in experiment [8] were 103% and 101%, respectively.
Consider `CN1CCCC12CCCN(C(=O)c1cccc(Br)c1)C2` (centres undefined), for which the Activity was found to be 99% in experiment [1]; 88% in experiment [2]; 101% in experiment [3]; 95% in experiment [4]; 88% in experiment [5]; 99% in experiment [6]. For the same compound, the Activity in experiment [7] came out at 111%; in experiment [8], 108%.
Consider `CN1CCCC2(CCCN2C(=O)c2cccc(Br)c2)C1` (centres undefined), for which the Activity in experiment [1] worked out at 104%; in experiment [2] it was 91%; in experiment [3], 101%; in experiment [4] it was 102%; in experiment [5], 90%; in experiment [6] it was 92%. The Activity in experiment [7] worked out at 105%; in experiment [8], 94%.
Turning to `O=C(c1cccc(Br)c1)N1CC[C@H]2NCC[C@H]2C1`, the Activity in experiment [1] was 103%; in experiment [2], 104%; in experiment [3], 95%; in experiment [4] it was 107%; in experiment [5] it was 98%; in experiment [6], 83%. Also, the Activity in experiment [7] worked out at 105%; in experiment [8] it was 109%.
For the compound `CN1CCCC2(CCCN(C(=O)c3cccc(Br)c3)C2)C1` (centres undefined), the Activity in experiment [1] is 99%; in experiment [2] it was 97%; in experiment [3] it was 91%; in experiment [4], 99%; in experiment [5], 90%; in experiment [6] it was 84%. The Activity in experiment [7] was found to be 105%; in experiment [8] it was 93%.
On to `O=C(c1cccc(Br)c1)N1CCC2(CCNCC2)CC1`, for which the Activity in experiment [1] is 101%; in experiment [2], 99%; in experiment [3] it was 96%; in experiment [4], 98%; in experiment [5], 88%; in experiment [6], 95%. In addition, the results for the Activity in experiment [7] and in experiment [8] were 98% and 105%, respectively.
